Results taken from ChEMBL document CHEMBL4371091, “Hypalocrinins, Taurine-Conjugated Anthraquinone and Biaryl Pigments from the Deep Sea Crinoid Hypalocrinus naresianus” (J Nat Prod, 2019).
Active and inactive are the calls of the source. No cut-off for these calls is given here.

Key:
[1] = system: PSN1; assay: Cytotoxicity against human PSN1 cells at 25 ug/ml; format: functional, cell-based
[2] = system: HT-29; assay: Cytotoxicity against human HT-29 cells at 25 ug/ml; format: functional, cell-based
[3] = system: MDA-MB-231; assay: Cytotoxicity against human MDA-MB-231 cells at 25 ug/ml; format: functional, cell-based
[4] = system: A549; assay: Cytotoxicity against human A549 cells at 25 ug/ml; format: functional, cell-based
[5] = Solubility of the compound in water; format: physicochemical; conditions: buffer

Row | SMILES | solubility [5] | other results
1 | CCCc1cc(O)c2c(c1)C(=O)c1cc(OS(=O)(=O)O)cc(O)c1C2=O | Soluble | –
2 | CCCc1cc(O)c2c(c1)C(=O)c1cc(O)c(CNCCS(=O)(=O)O)c(O)c1C2=O | Soluble | –
3 | O=C(NCCS(=O)(=O)O)c1cc(OS(=O)(=O)O)c2c(c1)C(=O)c1cc(O)c(-c3c(O)c(Br)c(O)c4c3C(=O)c3cc(C(=O)NCCS(=O)(=O)O)cc(OS(=O)(=O)O)c3C4=O)c(O)c1C2=O | Soluble | –
4 | O=C(NCCS(=O)(=O)O)c1cc(OS(=O)(=O)O)c2c(c1)C(=O)c1cc(O)c(Br)c(O)c1C2=O | Soluble | –
5 | O=C(NCCS(=O)(=O)O)c1cc(O)c2c(c1)C(=O)c1c(c(O)c(Br)c(O)c1-c1c(O)cc3c(c1O)C(=O)c1c(OS(=O)(=O)O)cc(C(=O)NCCS(=O)(=O)O)cc1C3=O)C2=O | Soluble | –

Now from value to molecule, other results behind:

Row | solubility [5] | SMILES | other results
6 | Soluble | O=C(NCCS(=O)(=O)O)c1cc(O)c2c(c1)C(=O)c1cc(O)c(Br)c(O)c1C2=O | Activity [1]: inactive; Activity [2]: inactive; Activity [3]: inactive; Activity [4]: inactive
7 | Soluble | O=C(NCCS(=O)(=O)O)c1cc(O)c2c(c1)C(=O)c1cc(O)cc(O)c1C2=O | –
8 | Soluble | O=C(O)c1cc(O)c2c(c1)C(=O)c1cc(O)c(Br)c(O)c1C2=O | –
9 | Soluble | O=C(NCCS(=O)(=O)O)c1cc(O)c2c(c1)C(=O)c1cc(O)c(CNCCS(=O)(=O)O)c(O)c1C2=O | –
